Patent US20170370908A1, “BRAIN IN VITRO MODELS, DEVICES, SYSTEMS, AND METHODS OF USE THEREOF” (President and Fellows of Harvard College, priority 2014, published 2017)

System: pericytes
Assay: Muscular thin film (MTF) assay of pericyte contraction response to vasoactive agents
Type: cell-based
Details: pericytes on muscular thin films treated with vasoactive agent
From the text: FIG. 6 illustrates an assay used to measure stress applied by pericytes treated with the vasoactive agent, endothelin.
FIG. 7 illustrates stress measurement applied by pericytes treated with vasoactive agent endothelin.

With `CC[C@H](C)[C@H](NC(=O)[C@H](CC(=O)O)NC(=O)[C@H](CC(C)C)NC(=O)[C@H](Cc1c[nH]cn1)NC(=O)[C@@H]1CSSC[C@H](N)C(=O)N[C@@H](CO)C(=O)N[C@H]2CSSC[C@H](NC(=O)[C@H](CCC(=O)O)NC(=O)[C@H](CCCCN)NC(=O)[C@H](CC(=O)O)NC(=O)[C@H](CCSC)NC(=O)[C@H](CC(C)C)NC(=O)[C@H](CO)NC(=O)[C@H](CO)NC2=O)C(=O)N[C@@H](C(C)C)C(=O)N[C@@H](Cc2ccc(O)cc2)C(=O)N[C@@H](Cc2ccccc2)C(=O)N1)C(=O)N[C@H](C(=O)N[C@@H](Cc1c[nH]c2ccccc12)C(=O)O)[C@@H](C)CC` [endothelin] the “contraction response of pericytes (stress applied by pericytes)” value was “induces pericyte contraction”.
